Where “and” joins values, the source holds several entries; their conditions need not be identical. Equal entries are not always repeated. Inconclusive results and toxic doses are left out. Rule as the data show it: active = T/C of 150% or more; inactive = T/C below 125%.
Tested on: L1210 leukemia ip in BDF1 mice, survival T/C
Test: NCI In Vivo Anticancer Drug Screen. Data for tumor model L1210 Leukemia (intraperitoneal) in B6D2F1 (BDF1) mice
Details: endpoint: mean survival time, higher = longer survival
Summary of the method: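 Read-out is survival time, reported as the treated-group measurement over the vehicle-control measurement.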

Measured: T/C

CCC1(O)CC(OC2CC(N(C)C)C(OC3CC4OC5CC(=O)C(C)OC5OC4C(C)O3)C(C)O2)c2c(cc3c(c2O)C(=O)c2c(O)ccc(O)c2C3=O)C1C(=O)OC (configuration not stated)
inactive: dose: 0.01 mg/kg/injection, schedule: Q01DX Z (ip), vehicle: saline 108 % of control and 88 % of control | dose: 0.16 mg/kg/injection, schedule: Q01DX Z (ip), vehicle: saline 98 % of control and 88 % of control | dose: 0.18 mg/kg/injection, schedule: Q03HX008 (ip), vehicle: saline with Tween-80 94 % of control and 90 % of control | dose: 0.18 mg/kg/injection, schedule: Q03HX024 (ip), vehicle: saline with Tween-80 93 % of control and 102 % of control | dose: 0.25 mg/kg/injection, schedule: Q01DX Z (ip), vehicle: other 103 % of control | dose: 0.25 mg/kg/injection, schedule: Q01DX Z (ip), vehicle: saline 94 % of control and 105 % of control | dose: 0.37 mg/kg/injection, schedule: Q03HX008 (ip), vehicle: saline with Tween-80 94 % of control and 100 % of control | dose: 0.37 mg/kg/injection, schedule: Q03HX024 (ip), vehicle: saline with Tween-80 99 % of control and 102 % of control | dose: 0.5 mg/kg/injection, schedule: Q01DX Z (ip), vehicle: other 112 % of control | dose: 0.5 mg/kg/injection, schedule: Q01DX Z (ip), vehicle: saline 113 % of control and 120 % of control | dose: 0.75 mg/kg/injection, schedule: Q01DX009 (ip), vehicle: saline with Tween-80 98 % of control | dose: 0.75 mg/kg/injection, schedule: Q03HX008 (ip), vehicle: saline with Tween-80 105 % of control and 109 % of control | dose: 0.75 mg/kg/injection, schedule: Q03HX024 (ip), vehicle: saline with Tween-80 105 % of control and 107 % of control | dose: 1.0 mg/kg/injection, schedule: Q01DX015 (ip), vehicle: saline 123 % of control | dose: 1.0 mg/kg/injection, schedule: Q01DX Z (ip), vehicle: other 123 % of control | dose: 1.1 mg/kg/injection, schedule: Q04DX003 (ip), vehicle: saline 107 % of control | dose: 1.25 mg/kg/injection, schedule: Q04DX003 (ip), vehicle: saline 106 % of control | dose: 1.5 mg/kg/injection, schedule: Q01DX001 (ip), vehicle: saline with Tween-80 93 % of control and 95 % of control | dose: 1.5 mg/kg/injection, schedule: Q01DX009 (ip), vehicle: saline with Tween-80 111 % of control | dose: 1.5 mg/kg/injection, schedule: Q01DX Z (ip), vehicle: other 120 % of control | dose: 1.5 mg/kg/injection, schedule: Q03HX008 (ip), vehicle: saline with Tween-80 114 % of control | dose: 1.5 mg/kg/injection, schedule: Q03HX024 (ip), vehicle: saline with Tween-80 98 % of control and 106 % of control | dose: 1.5 mg/kg/injection, schedule: Q04DX003 (ip), vehicle: saline with Tween-80 102 % of control and 105 % of control | dose: 1.7 mg/kg/injection, schedule: Q04DX003 (ip), vehicle: saline 110 % of control | dose: 1.8 mg/kg/injection, schedule: Q01DX015 (ip), vehicle: saline 91 % of control | dose: 2.0 mg/kg/injection, schedule: Q01DX Z (ip), vehicle: other 116 % of control | dose: 2.5 mg/kg/injection, schedule: Q04DX003 (ip), vehicle: saline 111 % of control | dose: 2.6 mg/kg/injection, schedule: Q04DX003 (ip), vehicle: saline 110 % of control | dose: 2.7 mg/kg/injection, schedule: Q01DX001 (ip), vehicle: saline 104 % of control and 120 % of control | dose: 3.0 mg/kg/injection, schedule: Q01DX001 (ip), vehicle: saline with Tween-80 93 % of control and 99 % of control | dose: 3.0 mg/kg/injection, schedule: Q01DX009 (ip), vehicle: saline with Tween-80 100 % of control | dose: 3.0 mg/kg/injection, schedule: Q04DX003 (ip), vehicle: saline with Tween-80 107 % of control and 108 % of control | dose: 4.0 mg/kg/injection, schedule: Q01DX001 (ip), vehicle: saline 114 % of control | dose: 4.0 mg/kg/injection, schedule: Q04DX003 (ip), vehicle: saline 124 % of control | dose: 6.0 mg/kg/injection, schedule: Q01DX001 (ip), vehicle: saline with Tween-80 99 % of control and 106 % of control | dose: 6.0 mg/kg/injection, schedule: Q01DX001 (ip), vehicle: saline 119 % of control | dose: 6.0 mg/kg/injection, schedule: Q04DX003 (ip), vehicle: saline with Tween-80 113 % of control and 115 % of control and 117 % of control | dose: 9.0 mg/kg/injection, schedule: Q01DX001 (ip), vehicle: saline 110 % of control | dose: 9.0 mg/kg/injection, schedule: Q04DX003 (ip), vehicle: saline with Tween-80 97 % of control | dose: 10.0 mg/kg/injection, schedule: Q04DX003 (ip), vehicle: saline 87 % of control | dose: 12.0 mg/kg/injection, schedule: Q01DX001 (ip), vehicle: saline with Tween-80 110 % of control and 122 % of control | dose: 12.0 mg/kg/injection, schedule: Q04DX003 (ip), vehicle: saline with Tween-80 105 % of control
